For experiment [1], the system named is Rattus norvegicus. The experiment in a line: Percent of rats protected from tonic seizure by ip administration at a dose of 10 mg/kg for anticonvulsant activity. It counts as functional. As to conditions: route intraperitoneal.
The subject of experiment [2] is Rattus norvegicus. The experiment is described as follows: Percent of rats protected from tonic seizure by ip administration at a dose of 40 mg/kg for anticonvulsant activity. Type of experiment: functional. As to conditions: route intraperitoneal.
Experiment [3] has as its system Rattus norvegicus. The experiment in a line: Anticonvulsant activity for tonic seizure by ip administration at a dose of 10 mg/kg. Particulars: route intraperitoneal, read-out: ID50 (the source's name). Type of experiment: functional.
Experiment [4] concerns Rattus norvegicus. The experiment is described as follows: Anticonvulsant activity for tonic seizure by ip administration at a dose of 10 mg/kg; Inactive. Set-up: dose 10 mg/kg. It counts as functional, organism-based.

The source made the active and inactive calls. The calls are words filed in the database; no cut-off is given here.

With `CNC(=O)c1cn(Cc2ccccc2)cn1`, the Protection was 20% with Rattus norvegicus [1] and 90% in the experiment on Rattus norvegicus [2].

As for `CNc1nccn2c(Cc3ccccc3)nnc12`, the Protection is listed as 65% in the experiment on Rattus norvegicus [1] and 100% in the experiment with Rattus norvegicus [2].

In the case of `NC(=O)c1cc(Cc2ccccc2)ccn1`, the Protection with Rattus norvegicus [1] was 50%; with Rattus norvegicus [2], 100%.

For `CNc1ncn(Cc2ccccc2F)c2ncnc1-2`, the ED50 with Rattus norvegicus [3] was 10 mg/kg. Also, the Protection is recorded as 50% in the experiment with Rattus norvegicus [1] and 100% in the experiment on Rattus norvegicus [2].

As for `CNc1ncnc2c1cnn2Cc1ccccc1F`, the ID50 result in the experiment on Rattus norvegicus [4] was “inactive”. The Protection in the experiment with Rattus norvegicus [1] amounted to 0%; in the experiment on Rattus norvegicus [2], 65%.

As for `CNc1cc(N(Cc2ccccc2)C(C)=O)ncn1`, the Protection with Rattus norvegicus [1] was 20%; in the experiment on Rattus norvegicus [2], 55%.

For the compound `Cc1nc(CCc2ccccc2)c(C(N)=O)nc1C`, the Protection is 0% with Rattus norvegicus [1] and 30% with Rattus norvegicus [2].

With `Cc1nc(C(N)=O)c(CCc2ccccc2)s1`, the Protection in the experiment on Rattus norvegicus [1] is recorded as 30%; in the experiment on Rattus norvegicus [2], 65%.

With `CNc1ncnc2c1ncn2Cc1ccccc1F` [BW-A78U], in the experiment on Rattus norvegicus [3], the ED50 came to 4 mg/kg. The same compound showed a Protection in the experiment with Rattus norvegicus [1] of 100%.

(Values after ChEMBL document CHEMBL1159150, “Synthesis and anticonvulsant properties of BW A78U structurally-related compounds” (1995).)
